Experimental findings from patent US10961200B2, “Small molecule inhibitors of lactate dehydrogenase and methods of use thereof” (THE UNITED STATES OF AMERICA, AS REPRESENTED BY THE …, priority 2014, dated 2021) are described below.

The nature of data set [1]: oral pharmacokinetics in male CD1 mice (plasma, LC/MS/MS). The data set is classed as in vivo. To be noted: oral 10 mg/kg; for F: fraction of the dose that enters systemic circulation.
Another data set deals with Human LDHA (Homo sapiens (Human), UniProt P00338). Put plainly: human LDHA primary biochemical assay (resazurin/diaphorase coupled, fluorescence). The conditions noted are these: LDHA inhibitory activity, activity level based on IC50 (Table 7). From the text: Test compounds were placed in a Greiner Bio-One (Monroe, N.C.) 1536-well black solid bottom assay plate. 200 millimolar (mM) Tris HCl, pH 7.4, 100 micromolar […] EDTA and 0.01% TWEEN-20™, final concentration, was used as the assay buffer. The LDHA reagent was 2 nanomolar (nM) Human LDHA (Meridian Life Science, Inc., Memphis, Tenn.), final concentration, in assay buffer.
For orientation: The colour change of resazurin is a common sign of viable cells or microbes.

In the next data set the test system is MiaPaCa2 cells. Briefly: cell-based HT lactate assay, colorimetric/fluorometric detection (inhibition of lactate production). The conditions noted are these: Homo sapiens, MIA PaCa-2; class symbols, 0 to 3 pluses.

Regarding `NS(=O)(=O)c1ccc(Cc2c(-c3cccc(-c4ccccc4)c3)nn(-c3nc(C(=O)O)cs3)c2C(F)(F)F)cc1` [Compound 42, 2-(3-([1,1′-biphenyl]-3-yl)-4-(4-sulfamoylbenzyl)-5-(trifluoromethyl)-1H-pyrazol-1-yl)thiazole-4-carboxylic acid], in data set [1] (mouse, plasma), the AUC(0-t) came out at 1210 ng·h/mL and the Cmax came out at 159 ng/mL. Also, in data set [1], the F is 34%.
In data set [1], `CCOC(=O)c1csc(-n2nc(-c3cccc(-c4ccccc4)c3)c(Cc3ccc(S(N)(=O)=O)cc3)c2C(F)(F)F)n1` [Compound 141, ethyl 2-(3-([1,1′-bipheny]-3-yl)-4-(4-sulfamoylbenzyl)-5-(trifluoromethyl)-1H-pyrazol-1-yl)thiazole-4-carboxylate] gave an F of 69%.
With `NS(=O)(=O)c1ccc(Cc2c(-c3ccc(F)c(Oc4ccc(F)cc4)c3)nn(-c3nc(C(=O)O)cs3)c2CC2CC2)cc1F` [Compound 511, 2-(5-(cyclopropylmethyl)-3-(4-fluoro-3-(4-fluorophenoxy)phenyl)-4-(3-fluoro-4-sulfamoylbenzyl)-1H-pyrazol-1-yl)thiazole-4-carboxylic Acid], the values for the IC50 against Human LDHA and in the data set on MiaPaCa2 cells were under 0.1 µM and 1 to 10 µM, respectively.
Regarding `NS(=O)(=O)c1ccc(Cc2c(-c3ccc(F)c(Oc4ccc(C(F)(F)F)cc4)c3)nn(-c3nc(C(=O)O)cs3)c2CC2CC2)cc1F` [Compound 512, 2-(5-(cyclopropylmethyl)-3-(4-fluoro-3-(4-(trifluoromethyl)phenoxy)phenyl)-4-(3-fluoro-4-sulfamoylbenzyl)-1H-pyrazol-1-yl)thiazole-4-carboxylic Acid], the results for the IC50 against Human LDHA and in the data set with MiaPaCa2 cells were under 0.1 µM and under 1 µM, respectively.
The like results for `NS(=O)(=O)c1ccc(Cc2c(-c3cc(F)cc(-c4cccc(F)c4)c3)nn(-c3nc(C(=O)O)cs3)c2CC2CC2)cc1` [Compound 523, 2-(5-(cyclopropylmethyl)-3-(3′,5-difluoro-[1,1′-biphenyl]-3-yl)-4-(4-sulfamoylbenzyl)-1H-pyrazol-1-yl)thiazole-4-carboxylic acid] were, in that order, 0.1 to 1 µM and 1 to 10 µM.
For `NS(=O)(=O)c1ccc(Cc2c(-c3cccc(Oc4cccc(F)c4)c3)nn(-c3nc(C(=O)O)cs3)c2CC2CC2)cc1` [Compound 526, 2-(5-(cyclopropylmethyl)-3-(3-(3-fluorophenoxy)phenyl)-4-(4-sulfamoylbenzyl)-1H-pyrazol-1-yl)thiazole-4-carboxylic Acid] the same measures were 0.1 to 1 µM and 10 to 57 µM.
The like results for `NS(=O)(=O)c1ccc(Cc2c(-c3ccc(F)c(OCc4ccc(F)cc4)c3)nn(-c3nc(C(=O)O)cs3)c2CC2CC2)cc1` [Compound 527, 2-(5-(cyclopropylmethyl)-3-(4-fluoro-3-((4-fluorobenzyl)oxy)phenyl)-4-(4-sulfamoylbenzyl)-1H-pyrazol-1-yl)thiazole-4-carboxylic Acid] were, in that order, under 0.1 µM and 1 to 10 µM.
As for `NS(=O)(=O)c1ccc(Cc2c(-c3ccc(F)c(OCc4cccc(F)c4)c3)nn(-c3nc(C(=O)O)cs3)c2CC2CC2)cc1F` [Compound 528, 2-(5-(cyclopropylmethyl)-3-(4-fluoro-3-((3-fluorobenzyl)oxy)phenyl)-4-(3-fluoro-4-sulfamoylbenzyl)-1H-pyrazol-1-yl)thiazole-4-carboxylic Acid], the IC50 against Human LDHA was under 0.1 µM; in the data set with MiaPaCa2 cells it was under 1 µM.
For `NS(=O)(=O)c1ccc(Cc2c(-c3ccc(F)c(C(F)(F)F)c3)nn(-c3nc(C(=O)O)cs3)c2CC2CC2)cc1F` [Compound 542, 2-(5-(cyclopropylmethyl)-3-(4-fluoro-3-(trifluoromethyl)phenyl)-4-(3-fluoro-4-sulfamoylbenzyl)-1H-pyrazol-1-yl)thiazole-4-carboxylic acid] the same measures were under 0.1 µM and 1 to 10 µM.
Consider `CC(C)(C)NC(=O)c1cc(-c2nn(-c3nc(C(=O)O)cs3)c(CC3CC3)c2Cc2ccc(S(N)(=O)=O)c(F)c2)ccc1F` [Compound 543, 2-(3-(3-(tert-butylcarbamoyl)-4-fluorophenyl)-5-(cyclopropylmethyl)-4-(3-fluoro-4-sulfamoylbenzyl)-1H-pyrazol-1-yl)thiazole-4-carboxylic acid], for which the IC50 on Human LDHA was under 0.1 µM; in the data set on MiaPaCa2 cells, 1 to 10 µM.
For `NS(=O)(=O)c1ccc(Cc2c(-c3ccc(F)c(C(=O)NCc4ccccc4)c3)nn(-c3nc(C(=O)O)cs3)c2CC2CC2)cc1F` [Compound 544, 2-(3-(3-(benzylcarbamoyl)-4-fluorophenyl)-5-(cyclopropylmethyl)-4-(3-fluoro-4-sulfamoylbenzyl)-1H-pyrazol-1-yl)thiazole-4-carboxylic acid], the IC50 was under 0.1 µM against Human LDHA and 1 to 10 µM in the data set on MiaPaCa2 cells.
For `NS(=O)(=O)c1ccc(Cc2c(-c3ccc(F)c(C(=O)N4CCCC4)c3)nn(-c3nc(C(=O)O)cs3)c2CC2CC2)cc1F` [Compound 545, 2-(5-(cyclopropylmethyl)-3-(4-fluoro-3-(pyrrolidine-1-carbonyl)phenyl)-4-(3-fluoro-4-sulfamoylbenzyl)-1H-pyrazol-1-yl)thiazole-4-carboxylic acid] the same measures were under 0.1 µM and 10 to 57 µM.

The AUC(0-t) is the area under the concentration-time curve up to a stated or last time point. In general, Cmax refers to the peak of the concentration-time curve. One may read the IC50 as the midpoint of a concentration-inhibition curve.
